Test results as given in ChEMBL document CHEMBL1201861, “Genomics of Drug Sensitity in Cancer screening data, Wellcome Trust Sanger Institute”.

Legend:
[1] = test system: Ca9-22; assay: cells; format: functional, cell-based, Homo sapiens; details: Homo sapiens, Ca9-22;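 also: growth inhibition of Ca9-22 cells, read out with a cell viability assay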
Description: SANGER: Inhibition of human Ca9-22 cell growth in a cell viability assay.

[2] = test system: DU-145; assay: cells; format: functional, cell-based, Homo sapiens; details: Homo sapiens, DU-145
Description: SANGER: Inhibition of human DU-145 cell growth in a cell viability assay.

[3] = test system: EFM-19; assay: cells; format: functional, cell-based, Homo sapiens; details: Homo sapiens, EFM-19;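 also: growth inhibition of human EFM-19 cells, measured in a cell viability assay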
Description: SANGER: Inhibition of human EFM-19 cell growth in a cell viability assay.

[4] = test system: GMS-10; assay: cells; format: functional, cell-based, Homo sapiens; details: Homo sapiens, GMS-10;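 also: growth inhibition of GMS-10 cells, read out as cell viability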
Description: SANGER: Inhibition of human GMS-10 cell growth in a cell viability assay.

[5] = test system: GP5d; assay: cells; format: functional, cell-based, Homo sapiens; details: Homo sapiens, GP5d;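 also: growth inhibition of human GP5d cells, read out with a cell viability assay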
Description: SANGER: Inhibition of human GP5d cell growth in a cell viability assay.

[6] = test system: HCC1937; assay: cells; format: functional, cell-based, Homo sapiens; details: Homo sapiens, HCC1937;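 also: growth inhibition measured with a cell viability read-out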
Description: SANGER: Inhibition of human HCC1937 cell growth in a cell viability assay.

[7] = test system: HEC-1; assay: cells; format: functional, cell-based, Homo sapiens; details: Homo sapiens, HEC-1;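 also: growth inhibition of the cell line, read out with a cell viability assay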
Description: SANGER: Inhibition of human HEC-1 cell growth in a cell viability assay.

[8] = test system: HGC-27; assay: cells; format: functional, cell-based, Homo sapiens; details: Homo sapiens, HGC-27;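 also: growth inhibition of human HGC-27 cells, read out in a cell viability assay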
Description: SANGER: Inhibition of human HGC-27 cell growth in a cell viability assay.

[9] = test system: HuP-T3; assay: cells; format: functional, cell-based, Homo sapiens; details: Homo sapiens, HuP-T3;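 also: HuP-T3 cell growth inhibition, read out with a cell viability assay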
Description: SANGER: Inhibition of human HuP-T3 cell growth in a cell viability assay.

[10] = test system: KYSE-140; assay: cells; format: functional, cell-based, Homo sapiens; details: Homo sapiens, KYSE-140;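 also: cell viability assay measuring growth inhibition in human KYSE-140 cells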
Description: SANGER: Inhibition of human KYSE-140 cell growth in a cell viability assay.

[11] = test system: KYSE-450; assay: cells; format: functional, cell-based, Homo sapiens; details: Homo sapiens, KYSE-450;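 also: cell growth inhibition measured by a viability assay in human KYSE-450 cells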
Description: SANGER: Inhibition of human KYSE-450 cell growth in a cell viability assay.

[12] = test system: LCLC-103H cell line; assay: cells; format: functional, cell-based, Homo sapiens; details: Homo sapiens, LCLC-103H
Description: SANGER: Inhibition of human LCLC-103H cell growth in a cell viability assay.

[13] = test system: LK-2; assay: cells; format: functional, cell-based, Homo sapiens; details: Homo sapiens, LK-2;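 also: growth inhibition of LK-2 cells, read out with a viability assay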
Description: SANGER: Inhibition of human LK-2 cell growth in a cell viability assay.

[14] = test system: M14; assay: cells; format: functional, cell-based, Homo sapiens; details: Homo sapiens, M14;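 also: growth inhibition of M14 cells, read out with a cell viability assay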
Description: SANGER: Inhibition of human M14 cell growth in a cell viability assay.

[15] = test system: MDA-MB-231; assay: cells; format: functional, cell-based, Homo sapiens; details: Homo sapiens, MDA-MB-231
Description: SANGER: Inhibition of human MDA-MB-231 cell growth in a cell viability assay.

[16] = test system: MG-63; assay: cells; format: functional, cell-based, Homo sapiens; details: Homo sapiens, MG-63;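 also: growth inhibition of human MG-63 cells, read out with a cell viability assay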
Description: SANGER: Inhibition of human MG-63 cell growth in a cell viability assay.

[17] = test system: MIA PaCa-2; assay: cells; format: functional, cell-based, Homo sapiens; details: Homo sapiens, MIA PaCa-2;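 also: growth inhibition of MIA PaCa-2 cells, read out with a cell viability assay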
Description: SANGER: Inhibition of human MIA-PaCa-2 cell growth in a cell viability assay.

[18] = test system: MeWo; assay: cells; format: functional, cell-based, Homo sapiens; details: Homo sapiens, MeWo;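 also: growth inhibition of MeWo cells, determined by a cell viability readout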
Description: SANGER: Inhibition of human Mewo cell growth in a cell viability assay.

[19] = test system: NCI-H1048; assay: cells; format: functional, cell-based, Homo sapiens; details: Homo sapiens, NCI-H1048;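 also: growth inhibition of human NCI-H1048 cells, read out with a cell viability assay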
Description: SANGER: Inhibition of human NCI-H1048 cell growth in a cell viability assay.

[20] = test system: NCI-H1623; assay: cells; format: functional, cell-based, Homo sapiens; details: Homo sapiens, NCI-H1623;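 also: cell viability assay used as the read-out for growth inhibition of NCI-H1623 cells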
Description: SANGER: Inhibition of human NCI-H1623 cell growth in a cell viability assay.

[21] = test system: NCI-H1693; assay: cells; format: functional, cell-based, Homo sapiens; details: Homo sapiens, NCI-H1693;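 also: growth inhibition of the human cell line, read out with a cell viability assay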
Description: SANGER: Inhibition of human NCI-H1693 cell growth in a cell viability assay.

[22] = test system: NCI-H1793; assay: cells; format: functional, cell-based, Homo sapiens; details: Homo sapiens, NCI-H1793;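 also: cell growth inhibition, read out by a cell viability assay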
Description: SANGER: Inhibition of human NCI-H1793 cell growth in a cell viability assay.

[23] = test system: PA-1; assay: cells; format: functional, cell-based, Homo sapiens; details: Homo sapiens, PA-1;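 also: IC50 for suppression of PA-1 cell proliferation, determined with a cell viability read-out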
Description: SANGER: Inhibition of human PA-1 cell growth in a cell viability assay.

[24] = test system: SJRH30; assay: cells; format: functional, cell-based, Homo sapiens; details: Homo sapiens, SJRH30;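 also: growth inhibition of human SJRH30 cells, read out with a cell viability assay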
Description: SANGER: Inhibition of human SJRH30 cell growth in a cell viability assay.

[25] = test system: SK-HEP1; assay: cells; format: functional, cell-based, Homo sapiens, SK-HEP-1; details: Homo sapiens, SK-HEP1;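 also: cell viability readout used to quantify reduction in proliferation of human SK-HEP-1 cells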
Description: SANGER: Inhibition of human SK-HEP-1 cell growth in a cell viability assay.

[26] = test system: SK-MEL-30; assay: cells; format: functional, cell-based, Homo sapiens; details: Homo sapiens, SK-MEL-30;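 also: growth inhibition of SK-MEL-30 cells, determined with a cell viability assay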
Description: SANGER: Inhibition of human SK-MEL-30 cell growth in a cell viability assay.

[27] = test system: SW780; assay: cells; format: functional, cell-based, Homo sapiens; details: Homo sapiens, SW780;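 also: growth inhibition of the cells, read out with a cell viability assay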
Description: SANGER: Inhibition of human SW780 cell growth in a cell viability assay.

[28] = test system: CWR22R; assay: cells; format: functional, cell-based, Homo sapiens; details: Homo sapiens, 22Rv1;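 also: growth inhibition of 22Rv1 cells, read out with a cell viability assay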
Description: SANGER: Inhibition of human 22RV1 cell growth in a cell viability assay.

[29] = test system: 769-P; assay: cells; format: functional, cell-based, Homo sapiens; details: Homo sapiens, 769-P
Description: SANGER: Inhibition of human 769-P cell growth in a cell viability assay.

[30] = test system: A673; assay: cells; format: functional, cell-based, Homo sapiens; details: Homo sapiens, A673;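 also: growth inhibition of human A673 cells, read out through a cell viability assay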
Description: SANGER: Inhibition of human A673 cell growth in a cell viability assay.

[31] = test system: CAL-27; assay: cells; format: functional, cell-based, Homo sapiens; details: Homo sapiens, CAL-27;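 also: Viability-based readout, IC50 reflecting inhibition of CAL-27 cell growth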
Description: SANGER: Inhibition of human CAL-27 cell growth in a cell viability assay.

[32] = test system: CAL-39; assay: cells; format: functional, cell-based, Homo sapiens; details: Homo sapiens, CAL-39;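 also: cell viability assay measuring growth inhibition of CAL-39 cells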
Description: SANGER: Inhibition of human CAL-39 cell growth in a cell viability assay.

[33] = test system: CAL-51; assay: cells; format: functional, cell-based, Homo sapiens; details: Homo sapiens, CAL-51;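 also: human CAL-51 cell line, growth inhibition read out via a cell viability assay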
Description: SANGER: Inhibition of human CAL-51 cell growth in a cell viability assay.

[34] = test system: CAL-62; assay: cells; format: functional, cell-based, Homo sapiens; details: Homo sapiens, CAL-62;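 also: growth inhibition of CAL-62 cells, read out with a cell viability assay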
Description: SANGER: Inhibition of human CAL-62 cell growth in a cell viability assay.

[35] = test system: WM-115; assay: cells; format: functional, cell-based, Homo sapiens; details: Homo sapiens, WM-115
Description: SANGER: Inhibition of human WM-115 cell growth in a cell viability assay.

[36] = test system: CHP-212; assay: cells; format: functional, cell-based, Homo sapiens; details: Homo sapiens, CHP-212
Description: SANGER: Inhibition of human CHP-212 cell growth in a cell viability assay.

[37] = test system: SK-MEL-24; assay: cells; format: functional, cell-based, Homo sapiens; details: Homo sapiens, SK-MEL-24;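 also: growth inhibition read out by a cell viability assay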
Description: SANGER: Inhibition of human SK-MEL-24 cell growth in a cell viability assay.

[38] = test system: ECC4; assay: cells; format: functional, cell-based, Homo sapiens; details: Homo sapiens, ECC4;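 also: growth inhibition of ECC4 cells, read out with a cell viability assay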
Description: SANGER: Inhibition of human ECC4 cell growth in a cell viability assay.

[39] = test system: HCC1599; assay: cells; format: functional, cell-based, Homo sapiens; details: Homo sapiens, HCC1599;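 also: growth inhibition of HCC1599 cells, read out in a cell viability assay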
Description: SANGER: Inhibition of human HCC1599 cell growth in a cell viability assay.

[40] = test system: MDA-MB-134-VI; assay: cells; format: functional, cell-based, Homo sapiens; details: Homo sapiens, MDA-MB-134-VI
Description: SANGER: Inhibition of human MDA-MB-134-VI cell growth in a cell viability assay.

[41] = test system: MONO-MAC-6; assay: cells; format: functional, cell-based, Homo sapiens; details: Homo sapiens, MONO-MAC-6;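 also: cell viability assay measuring growth inhibition of human MONO-MAC-6 cells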
Description: SANGER: Inhibition of human MONO-MAC-6 cell growth in a cell viability assay.

[42] = test system: NCI-H1522; assay: cells; format: functional, cell-based, Homo sapiens; details: Homo sapiens, NCI-H1522;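 also: growth inhibition of NCI-H1522 cells, read out with a cell viability assay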
Description: SANGER: Inhibition of human NCI-H1522 cell growth in a cell viability assay.

[43] = test system: OPM-2; assay: cells; format: functional, cell-based, Homo sapiens; details: Homo sapiens, OPM-2;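 also: growth of OPM-2 cells measured with a viability assay, IC50 for suppression of proliferation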
Description: SANGER: Inhibition of human OPM-2 cell growth in a cell viability assay.

[44] = test system: SIMA; assay: cells; format: functional, cell-based, Homo sapiens; details: Homo sapiens, SIMA;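 also: growth inhibition of SIMA cells, measured with a cell viability readout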
Description: SANGER: Inhibition of human SIMA cell growth in a cell viability assay.

[45] = test system: BL-41; assay: cells; format: functional, cell-based, Homo sapiens; details: Homo sapiens, BL-41;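 also: growth inhibition of human BL-41 cells, read out with a cell viability assay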
Description: SANGER: Inhibition of human BL-41 cell growth in a cell viability assay.

[46] = test system: BL-70; assay: SANGER: Inhibition of human BL-70 cell growth in a cell viability assay.; format: functional, cell-based; details: Homo sapiens, BL-70
[47] = test system: TE-15; assay: cells; format: functional, cell-based, Homo sapiens; details: Homo sapiens, TE-15;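 also: cell viability readout of growth inhibition in TE-15 cells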
Description: SANGER: Inhibition of human TE-15 cell growth in a cell viability assay.

[48] = test system: CESS; assay: SANGER: Inhibition of human CESS cell growth in a cell viability assay.; format: functional, cell-based; details: Homo sapiens, CESS

SMILES: Cn1cnc2c(F)c(Nc3ccc(Br)cc3Cl)c(C(=O)NOCCO)cc21 [SELUMETINIB]
- IC50 [1]: 2.38 µM
- IC50 [2]: > 4 µM
- IC50 [3]: > 4 µM
- IC50 [4]: > 4 µM
- IC50 [5]: > 4 µM
- IC50 [6]: > 4 µM
- IC50 [7]: > 4 µM
- IC50 [8]: > 4 µM
- IC50 [9]: > 4 µM
- IC50 [10]: > 4 µM
- IC50 [11]: > 4 µM
- IC50 [12]: > 4 µM
- IC50 [13]: > 4 µM
- IC50 [14]: 0.0369 µM
- IC50 [15]: > 4 µM
- IC50 [16]: > 4 µM
- IC50 [17]: 0.898 µM
- IC50 [18]: 0.521 µM
- IC50 [19]: > 4 µM
- IC50 [20]: > 4 µM
- IC50 [21]: > 4 µM
- IC50 [22]: > 4 µM
- IC50 [23]: > 4 µM
- IC50 [24]: > 4 µM
- IC50 [25]: 2.29 µM
- IC50 [26]: 0.782 µM
- IC50 [27]: 0.666 µM
- IC50 [28]: > 4 µM
- IC50 [29]: 3.74 µM
- IC50 [30]: > 4 µM
- IC50 [31]: 3.06 µM
- IC50 [32]: 0.332 µM
- IC50 [33]: > 4 µM
- IC50 [34]: 1.52 µM
- IC50 [35]: 0.268 µM
- IC50 [36]: < 0.0156 µM

SMILES: CN(C)C(=N)NC(=N)N [METFORMIN]
- IC50 [1]: 7950 µM
- IC50 [2]: 838 µM
- IC50 [4]: > 20000 µM
- IC50 [5]: > 20000 µM
- IC50 [6]: > 20000 µM
- IC50 [7]: 16200 µM
- IC50 [8]: > 20000 µM
- IC50 [10]: > 20000 µM
- IC50 [11]: > 20000 µM
- IC50 [12]: > 20000 µM
- IC50 [13]: 9240 µM
- IC50 [14]: > 20000 µM
- IC50 [16]: 14000 µM
- IC50 [17]: > 20000 µM
- IC50 [18]: > 20000 µM
- IC50 [19]: > 20000 µM
- IC50 [21]: > 20000 µM
- IC50 [22]: 18500 µM
- IC50 [23]: 14200 µM
- IC50 [25]: > 20000 µM
- IC50 [37]: > 20000 µM
- IC50 [26]: > 20000 µM
- IC50 [27]: 12400 µM
- IC50 [28]: 18000 µM
- IC50 [29]: 6920 µM
- IC50 [30]: 19200 µM
- IC50 [31]: > 20000 µM
- IC50 [32]: > 20000 µM
- IC50 [34]: > 20000 µM
- IC50 [35]: > 20000 µM
- IC50 [36]: 9630 µM

SMILES: C=C(c1ccc(C(=O)O)cc1)c1cc2c(cc1C)C(C)(C)CCC2(C)C [BEXAROTENE]
- IC50 [1]: > 8 µM
- IC50 [2]: > 8 µM
- IC50 [38]: > 8 µM
- IC50 [3]: > 8 µM
- IC50 [4]: > 8 µM
- IC50 [5]: > 8 µM
- IC50 [39]: > 8 µM
- IC50 [6]: > 8 µM
- IC50 [7]: > 8 µM
- IC50 [8]: > 8 µM
- IC50 [9]: > 8 µM
- IC50 [10]: > 8 µM
- IC50 [11]: > 8 µM
- IC50 [12]: > 8 µM
- IC50 [13]: > 8 µM
- IC50 [14]: > 8 µM
- IC50 [40]: > 8 µM
- IC50 [15]: > 8 µM
- IC50 [16]: 0.789 µM
- IC50 [17]: > 8 µM
- IC50 [41]: > 8 µM
- IC50 [18]: > 8 µM
- IC50 [42]: > 8 µM
- IC50 [20]: > 8 µM
- IC50 [21]: > 8 µM
- IC50 [22]: > 8 µM
- IC50 [43]: > 8 µM
- IC50 [23]: > 8 µM
- IC50 [44]: > 8 µM
- IC50 [24]: > 8 µM
- IC50 [25]: > 8 µM
- IC50 [37]: > 8 µM
- IC50 [26]: > 8 µM
- IC50 [27]: > 8 µM
- IC50 [28]: > 8 µM
- IC50 [29]: > 8 µM
- IC50 [30]: > 8 µM
- IC50 [45]: > 8 µM
- IC50 [46]: > 8 µM
- IC50 [31]: > 8 µM
- IC50 [32]: > 8 µM
- IC50 [33]: > 8 µM
- IC50 [34]: > 8 µM
- IC50 [47]: > 8 µM
- IC50 [35]: > 8 µM
- IC50 [48]: > 8 µM
- IC50 [36]: > 8 µM
